Measurements published in patent US20150105252A1, “SUBSTITUTED PYRAZOLES AS HERBICIDES” (E I DU PONT DE NEMOURS AND COMPANY, priority 2013, published 2015).

Legend:
Experiment in all cases: Test C postemergence
ragweed = assay type: in vivo, Ambrosia elation
Excerpt: (§1) Seeds of plant species selected from blackgrass (Alopecurus myosuroides), ryegrass, Italian (Italian ryegrass, Lolium multiflorum), wheat (winter wheat, Triticum aestivum), galium (catchweed bedstraw, Galium aparine), corn (Zea mays), crabgrass, large (large crabgrass, Digitaria sanguinalis), foxtail, giant (giant foxtail, Setaria faberii), johnsongrass (Sorghum halepense), lambsquarters (Chenopodium album), morningglory (Ipomoea coccinea), nutsedge, yellow (yellow nutsedge, Cyperus esculentus), pigweed (redroot pigweed, Amaranthus retroflexus), ragweed (common ragweed, Ambrosia elation), soybean (Glycine max), barnyardgrass (Echinochloa crus-galli), oilseed rape (Brassica napus), waterhemp (common waterhemp, Amaranthus rudis), oat, wild (wild oat, Avena fatua), kochia (Kochia scoparia), Surinam grass (Brachiaria decumbens), foxtail, green (green foxtail, Setaria viridis), goosegrass (Eleusine indica), bromegrass, downy (downy bromegrass, Bromus tectorum), nightshade (eastern black nightshade, Solanum ptycanthum), cocklebur (common cocklebur, Xanthium strumarium), cupgrass, woolly (woolly cupgrass, Eriochloa villosa), bermudagrass (Cynodon dactylon), sunflower, (common oilseed sunflower, Helianthus annuus), Russian thistle (Salsola kali), and velvetleaf (Abutilon theophrasti) were planted into a blend of loam soil and sand and treated preemergence with test chemicals formulated in a non-phytotoxic solvent mixture which included a surfactant.
(§2) At the same time, plants selected from these crop and weed species and also chickweed (common chickweed, Stellaria media), canarygrass (littleseed canarygrass, Phalaris minor), and deadnettle (henbit deadnettle, Lamium amplexicaule), were planted in pots containing Redi-Earth® planting medium (Scotts Company, 14111 Scottslawn Road, Marysville, Ohio 43041) comprising spaghnum peat moss, vermiculite, wetting agent and starter nutrients and treated with postemergence applications of test chemicals formulated in the same manner. Plants ranged in height from 2 to 18 cm (1- to 4-leaf stage) for postemergence treatments. Treated plants and controls were maintained in a greenhouse for 13 to 15 days, after which time all species were compared to controls and visually evaluated. Plant response ratings, summarized in Table C, are based on a scale of 0 to 100 where 0 is no effect and 100 is complete control. A dash (-) response means no test result.

barnyardgrass = assay type: in vivo, Echinochloa crus-galli
In short: (§3)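 Visual rating, 0–100 scale (0 no effect, 100 complete control), vs untreated controls after 13–15 d greenhouse. Pre: seeds in loam/sand, treated at sowing. Post: plants in peat-based mix, 1- to 4-leaf (2–18 cm). Solvent + surfactant formulation, non-phytotoxic.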

oat, wild = assay type: in vivo, Avena fatua
In short: as §3

blackgrass = assay type: in vivo, Alopecurus myosuroides
In short: as §3

pigweed = assay type: in vivo, Amaranthus retroflexus
Excerpt: as §1, §2

wheat = assay type: in vivo, Triticum aestivum
Excerpt: as §1, §2

johnsongrass = assay type: in vivo, Sorghum halepense
Excerpt: as §1, §2

velvetleaf = assay type: in vivo, Abutilon theophrasti
Excerpt: as §1, §2

corn = assay type: in vivo, Zea mays
In short: as §3

soybean = assay type: in vivo, Glycine max
Excerpt: as §1, §2

ryegrass, Italian = assay type: in vivo, Lolium multiflorum
Excerpt: as §1, §2

kochia = assay type: in vivo, Kochia scoparia
In short: as §3

foxtail, giant = assay type: in vivo, Setaria faberii
In short: as §3

chickweed = assay type: in vivo, Stellaria media
Excerpt: as §1, §2

galium = assay type: in vivo, Galium aparine
Excerpt: as §1, §2

lambsquarters = assay type: in vivo, Chenopodium album
In short: as §3

crabgrass, large = assay type: in vivo, Digitaria sanguinalis
In short: as §3

[1] = Postemergence, 31 g ai/ha, visually evaluated after 13 to 15 days
[2] = postemergence, 62 g ai/ha, scale 0 to 100
[3] = postemergence, 125 g ai/ha, scale 0 to 100, 0 no effect, 100 complete control

CCc1cc(C(=O)NOC(C)C)nn1Cc1ccnc(C(F)(F)F)c1 [Compound 101]
Plant response rating (scale of 0 to 100), Ragweed (ragweed; Postemergence, 16 g ai/ha): 15
Plant response rating (scale of 0 to 100 where 0 is no effect and 100 is complete control), Ragweed (ragweed; [1]): 15
Ragweed plant response rating (ragweed; [2]): 20
Plant response rating, Ragweed (ragweed; [3]): 75
Plant response rating (scale of 0 to 100), Barnyardgrass (barnyardgrass; Postemergence, 16 g ai/ha): 5
Plant response rating (scale of 0 to 100 where 0 is no effect and 100 is complete control), Barnyardgrass (barnyardgrass; [1]): 5
Barnyardgrass plant response rating (barnyardgrass; [2]): 5
Plant response rating, Barnyardgrass (barnyardgrass; [3]): 5
Plant response rating (scale of 0 to 100), Oat, Wild (oat, wild; Postemergence, 16 g ai/ha): 0
Plant response rating (scale of 0 to 100 where 0 is no effect and 100 is complete control), Oat, Wild (oat, wild; [1]): 0
Oat, Wild plant response rating (oat, wild; [2]): 5
Plant response rating, Oat, Wild (oat, wild; [3]): 10
Plant response rating (scale of 0 to 100), Blackgrass (blackgrass; Postemergence, 16 g ai/ha): 5
Plant response rating (scale of 0 to 100 where 0 is no effect and 100 is complete control), Blackgrass (blackgrass; [1]): 5
Blackgrass plant response rating (blackgrass; [2]): 5
Plant response rating, Blackgrass (blackgrass; [3]): 15
Plant response rating (scale of 0 to 100), Pigweed (pigweed; Postemergence, 16 g ai/ha): 20
Plant response rating (scale of 0 to 100 where 0 is no effect and 100 is complete control), Pigweed (pigweed; [1]): 35
Pigweed plant response rating (pigweed; [2]): 45
Plant response rating, Pigweed (pigweed; [3]): 75
Plant response rating (scale of 0 to 100), Wheat (wheat; Postemergence, 16 g ai/ha): 0
Plant response rating (scale of 0 to 100 where 0 is no effect and 100 is complete control), Wheat (wheat; [1]): 0
Wheat plant response rating (wheat; [2]): 5
Plant response rating, Wheat (wheat; [3]): 5
Plant response rating (scale of 0 to 100), Johnsongrass (johnsongrass; Postemergence, 16 g ai/ha): 0
Plant response rating (scale of 0 to 100 where 0 is no effect and 100 is complete control), Johnsongrass (johnsongrass; [1]): 5
Johnsongrass plant response rating (johnsongrass; [2]): 5
Plant response rating, Johnsongrass (johnsongrass; [3]): 5
Plant response rating (scale of 0 to 100), Velvetleaf (velvetleaf; Postemergence, 16 g ai/ha): 10
Plant response rating (scale of 0 to 100 where 0 is no effect and 100 is complete control), Velvetleaf (velvetleaf; [1]): 15
Velvetleaf plant response rating (velvetleaf; [2]): 25
Plant response rating, Velvetleaf (velvetleaf; [3]): 30
Plant response rating (scale of 0 to 100), Corn (corn; Postemergence, 16 g ai/ha): 5
Plant response rating (scale of 0 to 100 where 0 is no effect and 100 is complete control), Corn (corn; [1]): 10
Corn plant response rating (corn; [2]): 10
Plant response rating, Corn (corn; [3]): 60
Plant response rating (scale of 0 to 100), Soybean (soybean; Postemergence, 16 g ai/ha): 15
Plant response rating (scale of 0 to 100 where 0 is no effect and 100 is complete control), Soybean (soybean; [1]): 20
Soybean plant response rating (soybean; [2]): 25
Plant response rating, Soybean (soybean; [3]): 40
Plant response rating (scale of 0 to 100), Ryegrass, Italian (ryegrass, Italian; Postemergence, 16 g ai/ha): 5
Plant response rating (scale of 0 to 100 where 0 is no effect and 100 is complete control), Ryegrass, Italian (ryegrass, Italian; [1]): 5
Ryegrass, Italian plant response rating (ryegrass, Italian; [2]): 5
Plant response rating, Ryegrass, Italian (ryegrass, Italian; [3]): 10
Plant response rating (scale of 0 to 100), Kochia (kochia; Postemergence, 16 g ai/ha): 40
Plant response rating (scale of 0 to 100 where 0 is no effect and 100 is complete control), Kochia (kochia; [1]): 60
Kochia plant response rating (kochia; [2]): 65
Plant response rating, Kochia (kochia; [3]): 65
Plant response rating (scale of 0 to 100), Foxtail, Giant (foxtail, giant; Postemergence, 16 g ai/ha): 10
Plant response rating (scale of 0 to 100 where 0 is no effect and 100 is complete control), Foxtail, Giant (foxtail, giant; [1]): 10
Foxtail, Giant plant response rating (foxtail, giant; [2]): 30
Plant response rating, Foxtail, Giant (foxtail, giant; [3]): 65
Plant response rating (scale of 0 to 100), Chickweed (chickweed; Postemergence, 16 g ai/ha): 45
Plant response rating (scale of 0 to 100 where 0 is no effect and 100 is complete control), Chickweed (chickweed; [1]): 50
Chickweed plant response rating (chickweed; [2]): 50
Plant response rating, Chickweed (chickweed; [3]): 50
Plant response rating (scale of 0 to 100), Galium (galium; Postemergence, 16 g ai/ha): 20
Plant response rating (scale of 0 to 100 where 0 is no effect and 100 is complete control), Galium (galium; [1]): 35
Galium plant response rating (galium; [2]): 50
Plant response rating, Galium (galium; [3]): 55
Plant response rating (scale of 0 to 100), Lambsquarters (lambsquarters; Postemergence, 16 g ai/ha): 50
Plant response rating (scale of 0 to 100 where 0 is no effect and 100 is complete control), Lambsquarters (lambsquarters; [1]): 50
Lambsquarters plant response rating (lambsquarters; [2]): 65
Plant response rating, Lambsquarters (lambsquarters; [3]): 75
Plant response rating (scale of 0 to 100), Crabgrass, Large (crabgrass, large; Postemergence, 16 g ai/ha): 5
Plant response rating (scale of 0 to 100 where 0 is no effect and 100 is complete control), Crabgrass, Large (crabgrass, large; [1]): 5
Crabgrass, Large plant response rating (crabgrass, large; [2]): 15
Plant response rating, Crabgrass, Large (crabgrass, large; [3]): 20
